Assay results reported in ChEMBL document CHEMBL1772973, “Design, synthesis, radiolabeling, and in vitro and in vivo evaluation of bridgehead iodinated analogues of N-{2-[4-(2-methoxyphenyl)piperazin-1-yl]ethyl}-N-(pyridin-2-yl)cyclohexanecarboxamide (WAY-100635) as potential SPECT ligands for the 5-HT1A receptor” (J Med Chem, 2011).

Legend:
[1] = target: T1, 5-hydroxytryptamine receptor 1A (Homo sapiens, UniProt P08908); test: biochemical
T1 sequence (P08908 whole entry): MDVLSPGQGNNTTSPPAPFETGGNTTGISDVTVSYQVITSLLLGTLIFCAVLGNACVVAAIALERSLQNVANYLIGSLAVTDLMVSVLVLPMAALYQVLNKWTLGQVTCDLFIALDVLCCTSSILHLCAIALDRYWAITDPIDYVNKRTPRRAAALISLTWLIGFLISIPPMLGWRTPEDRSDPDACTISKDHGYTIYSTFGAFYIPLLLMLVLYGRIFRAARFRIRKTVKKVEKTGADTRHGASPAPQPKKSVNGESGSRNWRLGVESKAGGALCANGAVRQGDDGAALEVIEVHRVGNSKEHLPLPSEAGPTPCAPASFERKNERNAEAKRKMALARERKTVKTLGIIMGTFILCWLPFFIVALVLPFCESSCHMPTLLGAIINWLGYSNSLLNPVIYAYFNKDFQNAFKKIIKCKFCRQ
Description: Displacement of [3H]8-OH-DPAT from human cloned 5HT1A receptor expressed in HEK293 EBNA cells after 1 hr by liquid scintillation counting

[2] = target: T2, Alpha-1D adrenergic receptor (Homo sapiens, UniProt P25100)
T2 sequence (P25100 whole entry): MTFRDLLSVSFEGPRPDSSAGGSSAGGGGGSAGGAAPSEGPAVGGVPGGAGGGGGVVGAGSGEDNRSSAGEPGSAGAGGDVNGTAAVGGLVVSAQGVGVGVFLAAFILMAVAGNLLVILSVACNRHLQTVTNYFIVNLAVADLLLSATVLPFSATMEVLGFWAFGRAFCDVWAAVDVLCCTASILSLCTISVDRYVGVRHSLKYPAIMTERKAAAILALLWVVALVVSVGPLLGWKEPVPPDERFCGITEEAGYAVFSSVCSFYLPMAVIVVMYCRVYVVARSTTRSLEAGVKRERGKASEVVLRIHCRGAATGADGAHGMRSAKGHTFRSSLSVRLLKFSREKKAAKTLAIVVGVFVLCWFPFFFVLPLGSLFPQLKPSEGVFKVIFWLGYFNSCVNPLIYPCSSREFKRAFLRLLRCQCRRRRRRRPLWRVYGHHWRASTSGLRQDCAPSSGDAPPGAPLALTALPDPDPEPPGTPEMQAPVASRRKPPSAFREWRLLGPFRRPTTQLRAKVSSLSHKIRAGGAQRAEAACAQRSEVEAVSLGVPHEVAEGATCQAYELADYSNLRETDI
Description: Inhibition of adrenergic Alpha-1D receptor

D(4) dopamine receptor = target: T3, D(4) dopamine receptor (Homo sapiens, UniProt P21917)
T3 sequence (P21917 whole entry): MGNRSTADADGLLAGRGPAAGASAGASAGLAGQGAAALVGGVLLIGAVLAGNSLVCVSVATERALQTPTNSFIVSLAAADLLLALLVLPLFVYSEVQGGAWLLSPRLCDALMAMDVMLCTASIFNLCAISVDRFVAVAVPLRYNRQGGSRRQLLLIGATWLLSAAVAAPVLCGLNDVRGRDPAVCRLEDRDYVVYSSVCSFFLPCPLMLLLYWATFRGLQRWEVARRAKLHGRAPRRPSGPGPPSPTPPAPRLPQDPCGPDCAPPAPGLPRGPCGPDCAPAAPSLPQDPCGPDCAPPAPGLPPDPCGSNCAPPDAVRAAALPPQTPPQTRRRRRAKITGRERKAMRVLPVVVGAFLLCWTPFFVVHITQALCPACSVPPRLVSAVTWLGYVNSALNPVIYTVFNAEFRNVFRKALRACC
Description: Inhibition of dopamine D4 receptor

[3] = target: T4, Alpha-1B adrenergic receptor (Homo sapiens, UniProt P35368)
T4 sequence (P35368 whole entry): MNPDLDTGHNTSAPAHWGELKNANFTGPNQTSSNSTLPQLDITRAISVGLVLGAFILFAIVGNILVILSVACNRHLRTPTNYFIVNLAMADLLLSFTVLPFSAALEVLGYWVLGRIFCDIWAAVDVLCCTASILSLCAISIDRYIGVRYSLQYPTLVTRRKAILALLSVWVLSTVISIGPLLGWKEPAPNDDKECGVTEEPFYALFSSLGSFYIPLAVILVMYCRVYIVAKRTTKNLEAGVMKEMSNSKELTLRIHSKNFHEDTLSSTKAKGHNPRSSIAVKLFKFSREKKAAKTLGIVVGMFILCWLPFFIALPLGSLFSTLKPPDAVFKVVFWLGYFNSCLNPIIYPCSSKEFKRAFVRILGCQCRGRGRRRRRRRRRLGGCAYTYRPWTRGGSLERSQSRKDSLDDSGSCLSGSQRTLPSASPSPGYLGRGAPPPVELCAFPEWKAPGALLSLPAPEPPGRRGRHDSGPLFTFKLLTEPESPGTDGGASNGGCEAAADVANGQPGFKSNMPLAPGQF
Description: Inhibition of adrenergic Alpha-1B receptor

[4] = target: 5-hydroxytryptamine receptor 7 (Homo sapiens, UniProt P34969)
[5] = target: T5, Alpha-1A adrenergic receptor (Homo sapiens, UniProt P35348)
T5 sequence (P35348 whole entry): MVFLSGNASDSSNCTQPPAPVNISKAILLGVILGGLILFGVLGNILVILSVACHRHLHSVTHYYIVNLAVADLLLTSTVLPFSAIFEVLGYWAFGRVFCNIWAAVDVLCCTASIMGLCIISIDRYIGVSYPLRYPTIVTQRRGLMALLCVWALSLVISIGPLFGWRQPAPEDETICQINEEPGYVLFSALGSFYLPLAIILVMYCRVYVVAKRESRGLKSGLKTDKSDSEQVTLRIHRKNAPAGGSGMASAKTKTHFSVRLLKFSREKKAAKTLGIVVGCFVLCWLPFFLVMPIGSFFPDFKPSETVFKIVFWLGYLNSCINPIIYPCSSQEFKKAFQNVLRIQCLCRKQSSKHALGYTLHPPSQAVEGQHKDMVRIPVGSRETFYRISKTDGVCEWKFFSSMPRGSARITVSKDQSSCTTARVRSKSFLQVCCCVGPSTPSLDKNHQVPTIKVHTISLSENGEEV
Description: Inhibition of adrenergic alpha1A receptor

[6] = target: T1, 5-hydroxytryptamine receptor 1A
[7] = target: 5-hydroxytryptamine receptor 1B (Homo sapiens, UniProt P28222)
physchem = conditions: octanol/water, pH 7.4

Sequence of 5-hydroxytryptamine receptor 1B (P28222 whole entry): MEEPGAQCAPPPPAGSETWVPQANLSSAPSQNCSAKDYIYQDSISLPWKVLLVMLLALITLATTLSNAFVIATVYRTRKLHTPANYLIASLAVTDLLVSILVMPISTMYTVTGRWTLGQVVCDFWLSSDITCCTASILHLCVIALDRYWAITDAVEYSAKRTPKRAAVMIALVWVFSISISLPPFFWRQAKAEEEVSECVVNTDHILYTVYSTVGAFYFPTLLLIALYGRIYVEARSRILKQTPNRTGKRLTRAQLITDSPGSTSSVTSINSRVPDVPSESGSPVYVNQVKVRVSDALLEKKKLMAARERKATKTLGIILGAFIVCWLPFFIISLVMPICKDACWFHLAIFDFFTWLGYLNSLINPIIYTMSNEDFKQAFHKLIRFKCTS
Sequence of 5-hydroxytryptamine receptor 7 (P34969 whole entry): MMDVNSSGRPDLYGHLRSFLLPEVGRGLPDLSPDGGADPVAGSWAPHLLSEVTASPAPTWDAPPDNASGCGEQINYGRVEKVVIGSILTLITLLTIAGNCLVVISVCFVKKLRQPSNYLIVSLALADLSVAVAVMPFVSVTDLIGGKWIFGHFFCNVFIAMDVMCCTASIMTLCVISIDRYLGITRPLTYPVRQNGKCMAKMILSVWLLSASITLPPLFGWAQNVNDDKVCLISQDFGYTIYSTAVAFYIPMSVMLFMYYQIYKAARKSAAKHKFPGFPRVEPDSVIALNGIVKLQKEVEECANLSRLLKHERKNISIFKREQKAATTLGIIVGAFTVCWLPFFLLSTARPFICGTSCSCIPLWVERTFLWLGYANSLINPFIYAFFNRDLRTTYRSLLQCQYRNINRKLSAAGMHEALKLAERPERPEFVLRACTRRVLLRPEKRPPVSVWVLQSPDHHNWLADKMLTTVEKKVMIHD

Compound | IC50 [1] [nM] | Ki [1] [nM] | Ki [2] [nM] | Ki (D(4) dopamine receptor) [nM] | Ki [3] [nM] | Ki [4] [nM] | Ki [5] [nM] | Ki [6] [nM] | Ki [7] [nM] | logD (physchem)
COc1ccccc1N1CCN(CCN(C(=O)C23CC4CC(CC(I)(C4)C2)C3)c2ccccn2)CC1 | 5.04 | 2.15 | – | – | – | – | – | – | – | –
COc1ccccc1N1CCN(CCN(C(=O)C23CCC(I)(CC2)CC3)c2ccccn2)CC1 | 2.61 | 1.11 | – | – | – | – | – | – | – | –
O=C(N(CCN1CCN(c2ccccc2O)CC1)c1ccccn1)C12CC3CC(C1)C(I)C(C3)C2 (stereo not drawn) | 3.95 | 1.68 | – | – | – | – | – | – | – | –

Continued by falling IC50 [1], values first:

IC50 [1] [nM] | Ki [1] [nM] | Ki [2] [nM] | Ki (D(4) dopamine receptor) [nM] | Ki [3] [nM] | Ki [4] [nM] | Ki [5] [nM] | Ki [6] [nM] | Ki [7] [nM] | logD (physchem) | Compound
2.59 | 1.11 | 98 | 329 | 185 | 161 | 78 | 2.2 | 121 | 4.14 | COc1ccccc1N1CCN(CCN(C(=O)C23C4C5C2C2C3C4C52I)c2ccccn2)CC1 (stereo not drawn)
2.02 | 0.87 | – | – | – | – | – | – | – | – | COc1ccccc1N1CCN(CCN(C(=O)C23CCC(I)(CC2)C3)c2ccccn2)CC1
